Source: ChEMBL document CHEMBL5137038, “Novel quinoline-based derivatives: A new class of PDE4B inhibitors for adjuvant-induced arthritis” (Eur J Med Chem, 2022)

What was measured:
RAW264.7 [1] = assay: Inhibition of LPS induced NO production in mouse RAW264.7 cells at 30 uM preincubated for 1 hr followed by LPS addition and measured after 24 hrs by Griess reagent based assay relative to control; type: functional; settings: time 25 hrs
[2] = target: 3',5'-cyclic-AMP phosphodiesterase 4B (Homo sapiens, UniProt Q07343); assay: Inhibition of PDE4B (unknown origin) using […] as substrate incubated for 1 hr by PDElight HTS cAMP phosphodiesterase assay
RAW264.7 [3] = assay: Inhibition of LPS induced NO production in mouse RAW264.7 cells preincubated for 1 hr followed by LPS addition and measured after 24 hrs by Griess reagent based assay; type: functional, cell-based

Chain of 3',5'-cyclic-AMP phosphodiesterase 4B (Q07343 whole entry): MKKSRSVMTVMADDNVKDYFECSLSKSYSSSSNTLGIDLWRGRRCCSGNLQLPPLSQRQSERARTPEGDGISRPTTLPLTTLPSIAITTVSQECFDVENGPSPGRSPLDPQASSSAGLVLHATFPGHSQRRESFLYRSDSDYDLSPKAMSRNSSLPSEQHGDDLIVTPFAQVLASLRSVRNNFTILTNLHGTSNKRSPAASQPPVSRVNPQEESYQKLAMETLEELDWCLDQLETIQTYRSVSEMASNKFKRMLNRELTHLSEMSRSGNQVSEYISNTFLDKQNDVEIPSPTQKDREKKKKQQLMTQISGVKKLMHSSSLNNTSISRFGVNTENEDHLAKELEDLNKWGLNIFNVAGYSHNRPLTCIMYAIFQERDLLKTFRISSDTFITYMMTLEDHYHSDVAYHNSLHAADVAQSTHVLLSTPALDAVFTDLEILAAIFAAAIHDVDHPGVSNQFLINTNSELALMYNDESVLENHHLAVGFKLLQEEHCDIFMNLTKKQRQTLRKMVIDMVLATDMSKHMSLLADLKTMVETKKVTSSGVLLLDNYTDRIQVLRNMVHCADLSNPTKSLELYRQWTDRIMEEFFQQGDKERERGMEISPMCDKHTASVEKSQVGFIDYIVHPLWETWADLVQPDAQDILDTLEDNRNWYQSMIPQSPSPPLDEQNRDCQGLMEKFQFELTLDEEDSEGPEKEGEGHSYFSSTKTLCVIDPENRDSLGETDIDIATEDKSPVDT

SMILES | inhibition at 30 µM (RAW264.7 [1]) [%] | further results
O=S(=O)(Nc1cccc(NS(=O)(=O)c2cccc3cccnc23)c1)c1ccc(Br)cc1 | 20.2 | 
O=S(=O)(Nc1cccc(NS(=O)(=O)c2cccc3cccnc23)c1)c1ccc(C(F)(F)F)cc1 | 40.6 | 
O=S(=O)(Nc1cccc(NS(=O)(=O)c2cccc3cccnc23)c1)c1cccc(C(F)(F)F)c1 | 23.9 | 
O=S(=O)(Nc1cccc(NS(=O)(=O)c2cccc3cccnc23)c1)c1ccc(F)cc1 | 19 | 
CC(C)c1ccc(S(=O)(=O)Nc2cccc(NS(=O)(=O)c3cccc4cccnc34)c2)cc1 | 41.5 | 
O=S(=O)(Nc1cccc(NS(=O)(=O)c2cccc3cccnc23)c1)c1ccc(Cl)cc1 | 6.7 | 
CC(C)(C)c1ccc(S(=O)(=O)Nc2cccc(NS(=O)(=O)c3cccc4cccnc34)c2)cc1 | 39.3 | 
Cc1ccc(S(=O)(=O)Nc2cccc(NS(=O)(=O)c3cccc4cccnc34)c2)cc1 | 11.4 | 
O=S(=O)(Nc1cccc(NS(=O)(=O)c2cccc3cccnc23)c1)c1ccccc1C(F)(F)F | 22 | 
CC(C)c1cc(C(C)C)c(S(=O)(=O)Nc2cccc(NS(=O)(=O)c3cccc4cccnc34)c2)c(C(C)C)c1 |  | IC50 [2]: 0.94 µM
O=S(=O)(Nc1cccc(NS(=O)(=O)c2cccc3cccnc23)c1)c1cccc(Br)c1 | 31.1 | 
O=S(=O)(Nc1cccc(NS(=O)(=O)c2cccc3cccnc23)c1)c1c(F)cccc1F | 23.6 | 
O=S(=O)(Nc1cccc(NS(=O)(=O)c2cccc3cccnc23)c1)c1ccccc1OC(F)(F)F | 13.2 | 
O=[N+]([O-])c1cccc(S(=O)(=O)Nc2cccc(NS(=O)(=O)c3cccc4cccnc34)c2)c1 | 28 | 
O=S(=O)(Nc1cccc(NS(=O)(=O)c2cccc3cccnc23)c1)c1ccccc1F | 30.2 | 
O=S(=O)(Nc1cccc(NS(=O)(=O)c2cccc3cccnc23)c1)c1cccc(F)c1 | 17.8 | 
COc1ccc(S(=O)(=O)Nc2cccc(NS(=O)(=O)c3cccc4cccnc34)c2)c(OC)c1 | 12.8 | 
O=S(=O)(Nc1cccc(NS(=O)(=O)c2cccc3cccnc23)c1)c1ccc(I)cc1 | 39.5 | 
O=S(=O)(Nc1cccc(NS(=O)(=O)c2cccc3cccnc23)c1)c1ccccc1Cl | 12.1 | 
O=S(=O)(Nc1cccc(NS(=O)(=O)c2cccc3cccnc23)c1)c1cc(Cl)cc(Cl)c1 | 29 | 
O=S(=O)(Nc1cccc(NS(=O)(=O)c2cccc3cccnc23)c1)c1ccc(OC(F)(F)F)cc1 | 31.6 | 
O=S(=O)(Nc1cccc(NS(=O)(=O)c2cccc3cccnc23)c1)c1ccccc1 | 23.8 | 
COc1ccc(Br)cc1S(=O)(=O)Nc1cccc(NS(=O)(=O)c2cccc3cccnc23)c1 | 16.3 | 
COc1ccc(S(=O)(=O)Nc2cccc(NS(=O)(=O)c3cccc4cccnc34)c2)cc1OC | 32.3 | 
O=S(=O)(Nc1cccc(NS(=O)(=O)c2cccc3cccnc23)c1)c1ccccc1Br | 23.6 | 
CC(=O)Nc1ccc(S(=O)(=O)Nc2cccc(NS(=O)(=O)c3cccc4cccnc34)c2)cc1 | 7.74 | 
N#Cc1ccc(S(=O)(=O)Nc2cccc(NS(=O)(=O)c3cccc4cccnc34)c2)cc1 | 25.2 | 
O=S(=O)(Nc1cccc(NS(=O)(=O)c2cccc3cccnc23)c1)c1c(Cl)cccc1Cl | 24.7 | 
COc1ccc2c(c1)c(CC(=O)O)c(C)n2C(=O)c1ccc(Cl)cc1 [INDOMETHACIN] | 42.5 | IC50 (RAW264.7 [3]): 34.3 µM
